Series [1] has as its target T1, Hormone-sensitive lipase (HSL) (Homo sapiens, UniProt Q05469).
T1 sequence (Q05469 1-1076): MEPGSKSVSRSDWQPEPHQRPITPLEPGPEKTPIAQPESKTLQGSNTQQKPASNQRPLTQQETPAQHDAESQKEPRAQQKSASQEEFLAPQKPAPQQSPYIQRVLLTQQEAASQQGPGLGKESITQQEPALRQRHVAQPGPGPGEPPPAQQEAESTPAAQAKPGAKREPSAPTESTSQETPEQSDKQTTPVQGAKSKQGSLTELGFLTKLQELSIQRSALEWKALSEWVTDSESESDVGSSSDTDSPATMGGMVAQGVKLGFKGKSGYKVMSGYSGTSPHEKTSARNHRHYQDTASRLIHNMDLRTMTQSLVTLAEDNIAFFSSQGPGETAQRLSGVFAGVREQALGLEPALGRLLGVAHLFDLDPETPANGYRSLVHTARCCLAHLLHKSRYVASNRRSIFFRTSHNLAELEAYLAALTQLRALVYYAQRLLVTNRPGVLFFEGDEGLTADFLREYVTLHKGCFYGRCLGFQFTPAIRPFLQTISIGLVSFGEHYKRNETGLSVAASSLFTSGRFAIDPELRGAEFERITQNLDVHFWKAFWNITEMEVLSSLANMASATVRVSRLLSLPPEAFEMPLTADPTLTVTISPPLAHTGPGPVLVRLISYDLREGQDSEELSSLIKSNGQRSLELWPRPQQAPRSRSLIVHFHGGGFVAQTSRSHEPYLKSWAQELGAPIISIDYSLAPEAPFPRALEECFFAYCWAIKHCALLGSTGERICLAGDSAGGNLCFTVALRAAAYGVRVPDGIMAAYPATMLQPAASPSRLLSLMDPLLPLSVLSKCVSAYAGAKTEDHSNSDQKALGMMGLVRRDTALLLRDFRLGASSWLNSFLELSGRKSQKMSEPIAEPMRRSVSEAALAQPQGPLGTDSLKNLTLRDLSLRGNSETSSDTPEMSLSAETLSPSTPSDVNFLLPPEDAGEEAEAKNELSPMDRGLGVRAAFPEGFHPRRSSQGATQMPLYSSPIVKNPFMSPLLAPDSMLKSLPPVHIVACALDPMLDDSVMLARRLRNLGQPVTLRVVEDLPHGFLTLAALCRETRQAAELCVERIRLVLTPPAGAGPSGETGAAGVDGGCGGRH
It counts as biochemical. An excerpt: (§1) Materials. The Hormone-sensitive lipase was provided by Dr. Cecilia Holm, from Lund University Sweden or produced and purified by Novo Nordisk (NN) using the reagents and protocols used by Dr. Holm. The substrates used are: ^3H-labeled triolein (TO) from Amersham, Buckinghamshire, U.K. cat No. TRA191; 5–20 Ci/mmol dissolved in toluene, triolein (Sigma, Cat. No. T-1740), fluorochrome-labeled triacylglyceride (cis-octadec-9-enoic acid 2-[12-(7-nitrobenzo[1,2,5]oxadiazol-4-ylamino)dodecanoyloxy]-1-cis-octadec-9-enoyloxymethyl-ethyl ester) prepared by Novo Nordisk (NN) by conventional methods, and 1,3-(di[^3H]-stearin), 2-(PEG-Boitin)glycerol prepared in collaboration with Amersham Pharmacia Biotech, UK and described in WO 01/073442. Phosphatidyl choline (PC) and phosphatidyl inositol (PI) are from Sigma (St Luis Mo. cat. Nos. P-3556 and P-5954 respectively). All other reagents are of commercial grade and obtained from various commercial sources.
2898.2: This method is an enzyme assay based upon SPA (scintillation proximity assay) particles. The substrate, 1,3-(di-[^3H]-stearin), 2-(PEG-Biotin)-glycerol, is marked with ^3H in both fatty acid moieties in the tri-glyceride. The third moiety of the tri-glyceride is a PEG linked Biotin. The substrate binds through Biotin to streptavidin in the SPA particles and the proximity between the radioactive tritium in the stearic acid moiety and the SPA particle results in emission of light from the SPA particles. The assay is an on-bead assay where HSL degrades the substrate, where after ^3H-stearin acid is released from the bead. The amount of light emitted is proportional to the amount of substrate bound to the receptor. When a compound that inhibits the activity of HSL is present it results in a decrease in degradation of the substrate and thus an increase in the amount of light emitted and a concomitant increase in % Eff. % Eff(% Inhibition)=(S−S0Eff)/(SmaxEff−S0Eff)×100 Where S=signal in dpm., SOEff=no inhibitor added, SmaxEff=with maximum concentration of inhibitor. Results

Series [2] addresses T1, Hormone-sensitive lipase (HSL). Briefly: biochemical. The class given is biochemical. The note with it: for activity at 10 µM: read-out: Test 3180.2 HSL % ACTIVITY All.
Text: as §1
3180.2: Assay for determination of percent inhibition by compound at 10 μM concentration.
A lipid emulsion with ^3H-Triolein and phospholipid is used as substrate with a standard cencentration of highly purified HSL. BSA is added as product receptor. The substrate is prepared as follows:
30 μl PC:PI (20 mg/ml solution of PC:PI 3:1 prepared in chloroform)+128 μl cold TO+15 μl ^3H-TO are mixed and then evaporated under a gentle stream of N2 followed by 20–30 minutes in a Speedvac to ensure the absence of residual solvent.
Compound and HSL are incubated for 30 min at 25° C. before addition of substrate. Reaction is stopped after 30 min at 25° C. by adding a mixture of methanol, chloroform and heptane at high pH. Formed product is separated from substrate by phase separation.
Results are given as percent activity relative to an un-inhibited sample (no compound).

Series [3] shares this target. In words: biochemical. The note with it: for activity at 10 µM: read-out: Test 3190.1 HSL_FL % ACTIVITY All. How it is done: Materials. The Hormone-sensitive lipase was provided by Dr. Cecilia Holm, from Lund University Sweden or produced and purified by Novo Nordisk (NN) using the reagents and protocols used by Dr. Holm. […] All other reagents are of commercial grade and obtained from various commercial sources.
BSA is added as product receptor. The transfer of the fluorochrome from the lipid phase to the water (BSA) phase changes the fluorescent properties of the fluorochrome. The changes can be monitored on a fluorimeter with an excitation wavelength of 450 nm and an emission wavelength of 545 nm.
Compound and HSL (20 μL compound, 10 μL enzyme and 70 μL PED-BSA buffer) is pre-incubated for 30 min at 25° C. before addition of substrate (100 μL). Amount of formed product is measured after 120 min incubation at 37° C.

Where [4] appears, read: 10 μM sample concentration, percent activity relative to a non-inhibited sample (no compound).
The mark [5] stands for this setting: 10 μM concentration, percent activity relative to an un-inhibited sample (no compound).
Where [6] appears, read: SPA on-bead assay, % Eff (% Inhibition).

The melting point is the temperature of the solid-liquid transition.

Read-outs that look alike come from different tables or passages of the source.

As for “1-Biphenyl-4-yl-3-methylamino-propenone-cyclohexyl-carbamic acid [Example 115]”, in series [1], the “Test 2898.2 HSL2 % Inhibition All” value came to 73.6%. Moreover, the “Test 3180.2 HSL % ACTIVITY All” value in series [2] (10 µM) came out at 85%. Turning to `Cc1c(Cc2ccccc2)c(=O)oc2cc(OC(=O)N3CCCc4ccccc43)ccc12` [Example 73, 3,4-Dihydro-2H-quinoline-1-carboxylic acid 3-benzyl-4-methyl-2-oxo-2H-chromen-7-yl ester], the activity at 10 µM in series [3] (setting [4]) was determined as 39%. On the same count and under the same terms, the same measure for `COc1ccc(OC)c(-c2c(C)c3ccc(OC(=O)N4CCCc5ccccc54)cc3oc2=O)c1` [Example 81, 3,4-Dihydro-2H-quinoline-1-carboxylic acid 3-(2,5-dimethoxy-phenyl)-4-methyl-2-oxo-2H-chromen-7-yl ester]: 36%; for `O=C(Oc1ccc(Oc2c(Cl)cncc2Cl)cc1)N1CCOCC1` [Example 85, Morpholine-4-carboxylic acid 4-(3,5-dichloro-pyridin-4-yloxy)-phenyl ester]: 88%. On to `CC(C)(C)Oc1ccc(OC(=O)N2CCOCC2)cc1` [Example 87, Morpholine-4-carboxylic acid 4-tert-butoxy-phenyl ester], for which the melting point lay in the range of 128.8 to 129.5 °C. The activity at 10 µM in series [3] (setting [4]) is 48%. On to `O=C(Oc1ccc(Oc2ccc3c(C(F)(F)F)cc(C(F)(F)F)nc3n2)cc1)N1CCOCC1` [Example 90, Morpholine-4-carboxylic acid 4-(5,7-bis-trifluoromethyl-[1,8]naphthypyridin-2-yloxy)-phenyl ester], for which the “Test 3190.1 HSL_FL % ACTIVITY All” value in series [3] (setting [4]) is 24%.

For the compound `Cc1c(Cc2ccccc2)c(=O)oc2cc(OC(=O)N3CCOCC3)ccc12` [Example 92], in series [2] (setting [5]), the “Test 3180.2 HSL % ACTIVITY All” value is given as 62%. As to `CN(C)C(=O)On1nnc2ccccc21` [Example 103, Dimethylcarbamic acid benzotriazol-1-yl ester], in series [1] (setting [6]), the “Test 2898.2 HSL2 % Inhibition All” value was 101.4%. For the same compound, in series [2], the activity at 10 µM turned out to be 2%. As to `CC(C)C(Cl)=NOC(=O)NCc1ccc(F)cc1` [Example 112, N-(4-Fluorobenzylcarbamoyloxy)-isobutyrimidoyl chloride], the “Test 2898.2 HSL2 % Inhibition All” value in series [1] (setting [6]) came out at 86%.

As for `CC(C)C(Cl)=NOC(=O)NCC(O)c1ccccc1` (stereo not drawn) [Example 113, N-(2-Hydroxy-2-phenylethylcarbamoyloxy)-isobutyrimidoyl chloride], in series [1] (setting [6]), the “Test 2898.2 HSL2 % Inhibition All” value was found to be 18.3%.

Regarding `O=C(Nc1cccn1-c1ncc(C(F)(F)F)cc1Cl)Oc1ccc(Cl)cc1` [Example 117, [1-(3-Chloro-5-trifluoromethyl-pyridin-2-yl)-1H-pyrrol-2-yl]-carbamic acid 4-chloro-phenyl ester], in series [2] (setting [5]), the activity at 10 µM was determined as 2%. Same read-out and setting: the same measure for `CCCCCCSc1nc(-c2ccc(C)cc2)nn1C(=O)N(C)c1ccccc1` [Example 118, N-Methyl-N-phenyl-5-hexylsulfanyl-3-p-tolyl-[1,2,4]triazole-1-carboxamide]: 24%. Same read-out and setting: the same measure for `CSc1nc(-c2ccc(Cl)cc2)nn1C(=O)N1CCOCC1` [Example 120, [3-(4-Chlorophenyl)-5-methylsulfanyl-[1,2,4]triazol-1-yl]-morpholin-4-yl-methanone]: 40%; for `CSc1nc(-c2ccc3ccccc3c2)nn1C(=O)N(C)C` [Example 121, N,N-Dimethyl-5-methylsulfanyl-3-naphthalen-2-yl-[1,2,4]triazole-1-carboxamide]: 24%.

On to `CCSc1nc(-c2ccc(Cl)cc2)nn1C(=O)N(C)C` [Example 122, N,N-Dimethyl-3-(4-chloro-phenyl)-5-ethylsulfanyl-[1,2,4]triazole-1-carboxamide], for which, in series [2] (setting [5]), the activity at 10 µM worked out at 14%. Same read-out and setting: the same measure for `CSc1nc(-c2ccc(-c3ccccc3)cc2)nn1C(=O)N(C)C` [Example 123, N,N-Dimethyl-3-biphenyl-4-yl-5-methylsulfanyl-[1,2,4]triazole-1-carboxamide]: 22%.

Turning to `CSc1nc(-c2ccc(Cl)cc2)nn1C(=O)N(C)C` [Example 124, N,N-Dimethyl-3-(4-chloro-phenyl)-5-methylsulfanyl-[1,2,4]triazole-1-carboxamide], the “Test 2898.2 HSL2 % Inhibition All” value in series [1] (setting [6]) is recorded as 75.1%. With `Cc1ccc(CSc2nnc(OC(=O)N(C)C)n2-c2cccc(Cl)c2)cc1` [Example 133, Dimethyl carbamic acid 4-(3-chloro-phenyl)-5-(4-methyl-benzylsulfanyl)-4H-[1,2,4]triazol-3-yl ester], the “Test 2898.2 HSL2 % Inhibition All” value in series [1] (setting [6]) is reported as 15.8%. With `CN(C(=O)On1ccnn1)c1ccccc1` [Example 144, Methyl-phenyl-carbamic acid [1,2,3]triazol-1-yl ester], the melting point lay in the range of 105 to 106 °C. The activity at 10 µM in series [3] came out at 25%. As to “N-Methyl-N-phenethyl-5-ethyl-3-(4-chlorophenyl)-[1,2,4]triazole-1-carboxamide [Example 119]”, the “Test 3180.2 HSL % ACTIVITY All” value in series [2] (setting [5]) is on record as 10%.
